Experimental data taken from ChEMBL document CHEMBL3045600, “Synthesis and Fungicidal Activities of Phenoxyphenyl Alkoxyiminoacetamide Derivatives” (J Pestic Sci, 1998).

Tests used:
Assay type in all cases: functional
[1] = tested on: Podosphaera fuliginea; assay: Fungicidal activity against Podosphaera fuliginea assessed as cucumber powdery mildew control under greenhouse at 7.8 ppm foliar application 24 hr before inoculation on upper surface of leaf at 23 +/- 2 degC by preventive manner
[2] = tested on: Pseudoperonospora cubensis; assay: Fungicidal activity against Pseudoperonospora cubensis assessed as cucumber downy mildew disease control at 125 ppm foliar application 24 hr before inoculation on upper surface of leaf by preventive manner
[3] = tested on: Botrytis cinerea; assay: Fungicidal activity against Botryotinia fuckeliana assessed as cucumber gray mold disease control at 31.3 ppm foliar application 24 hr before inoculation at 22 +/- 2 degC measured after 3 days by preventive manner
[4] = tested on: Thanatephorus cucumeris; assay: Fungicidal activity against Thanatephorus cucumeris assessed as rice sheath blight disease control at 31.3 ppm foliar application for 24 hr before inoculation at 26 +- 2 measured after 5 days by preventive manner
[5] = tested on: Thanatephorus cucumeris; assay: Fungicidal activity against Thanatephorus cucumeris assessed as rice sheath blight disease control at 125 ppm foliar application for 24 hr before inoculation at 26 +- 2 measured after 5 days by preventive manner
[6] = tested on: Thanatephorus cucumeris; assay: Fungicidal activity against Thanatephorus cucumeris assessed as rice sheath blight disease control at 7.8 ppm foliar application for 24 hr before inoculation at 26 +- 2 measured after 5 days by preventive manner
[7] = tested on: Thanatephorus cucumeris; assay: Fungicidal activity against Thanatephorus cucumeris assessed as rice sheath blight disease control at 2 ppm foliar application for 24 hr before inoculation at 26 +- 2 measured after 5 days by preventive manner
[8] = tested on: Botrytis cinerea; assay: Fungicidal activity against Botryotinia fuckeliana assessed as cucumber gray mold disease control at 2 ppm foliar application 24 hr before inoculation at 22 +/- 2 degC measured after 3 days by preventive manner
[9] = tested on: Podosphaera fuliginea; assay: Fungicidal activity against Podosphaera fuliginea assessed as cucumber powdery mildew control under greenhouse at 31.3 ppm foliar application 24 hr before inoculation on upper surface of leaf at 23 +/- 2 degC by preventive manner
[10] = tested on: Pseudoperonospora cubensis; assay: Fungicidal activity against Pseudoperonospora cubensis assessed as cucumber downy mildew disease control at 7.8 ppm foliar application 24 hr before inoculation on upper surface of leaf by preventive manner
[11] = tested on: Pseudoperonospora cubensis; assay: Fungicidal activity against Pseudoperonospora cubensis assessed as cucumber downy mildew disease control at 31.3 ppm foliar application 24 hr before inoculation on upper surface of leaf by preventive manner
[12] = tested on: Podosphaera fuliginea; assay: Fungicidal activity against Podosphaera fuliginea assessed as cucumber powdery mildew control under greenhouse at 2 ppm foliar application 24 hr before inoculation on upper surface of leaf at 23 +/- 2 degC by preventive manner
[13] = tested on: Podosphaera fuliginea; assay: Fungicidal activity against Podosphaera fuliginea assessed as cucumber powdery mildew control under greenhouse at 125 ppm foliar application 24 hr before inoculation on upper surface of leaf at 23 +/- 2 degC by preventive manner
[14] = tested on: Botrytis cinerea; assay: Fungicidal activity against Botryotinia fuckeliana assessed as cucumber gray mold disease control at 7.8 ppm foliar application 24 hr before inoculation at 22 +/- 2 degC measured after 3 days by preventive manner
[15] = tested on: Pseudoperonospora cubensis; assay: Fungicidal activity against Pseudoperonospora cubensis assessed as cucumber downy mildew disease control at 2 ppm foliar application 24 hr before inoculation on upper surface of leaf by preventive manner
[16] = tested on: Botrytis cinerea; assay: Fungicidal activity against Botryotinia fuckeliana assessed as cucumber gray mold disease control at 125 ppm foliar application 24 hr before inoculation at 22 +/- 2 degC measured after 3 days by preventive manner
[17] = tested on: Podosphaera fuliginea; assay: Fungicidal activity against Podosphaera fuliginea assessed as cucumber powdery mildew control under greenhouse at 2 ppm foliar application 24 hr after inoculation on upper surface of leaf at 23 +/- 2 degC by curative manner
[18] = tested on: Botrytis cinerea; assay: Fungicidal activity against Botryotinia fuckeliana assessed as cucumber gray mold disease control at 7.8 ppm foliar application 24 hr after inoculation at 22 +/- 2 degC measured after 3 days by curative manner
[19] = tested on: Pyricularia oryzae; assay: Fungicidal activity against Magnaporthe oryzae assessed as rice blast disease control at 0.63 ppm submerged application measured after 7 days
[20] = tested on: Botrytis cinerea; assay: Fungicidal activity against Botryotinia fuckeliana assessed as cucumber gray mold disease control at 2 ppm foliar application 24 hr after inoculation at 22 +/- 2 degC measured after 3 days by curative manner
[21] = tested on: Botrytis cinerea; assay: Fungicidal activity against Botryotinia fuckeliana assessed as cucumber gray mold disease control at 125 ppm foliar application 24 hr after inoculation at 22 +/- 2 degC measured after 3 days by curative manner
[22] = tested on: Podosphaera fuliginea; assay: Fungicidal activity against Podosphaera fuliginea assessed as cucumber powdery mildew control under greenhouse at 7.8 ppm foliar application 24 hr after inoculation on upper surface of leaf at 23 +/- 2 degC by curative manner
[23] = tested on: Pyricularia oryzae; assay: Fungicidal activity against Magnaporthe oryzae assessed as rice blast disease control at 2.5 ppm submerged application measured after 7 days
[24] = tested on: Pseudoperonospora cubensis; assay: Fungicidal activity against Pseudoperonospora cubensis assessed as cucumber downy mildew disease control at 125 ppm foliar application 24 hr after inoculation on upper surface of leaf by curative manner
[25] = tested on: Pseudoperonospora cubensis; assay: Fungicidal activity against Pseudoperonospora cubensis assessed as cucumber downy mildew disease control at 2 ppm foliar application 24 hr after inoculation on upper surface of leaf by curative manner
[26] = tested on: Pyricularia oryzae; assay: Fungicidal activity against Magnaporthe oryzae assessed as rice blast disease control at 0.16 ppm submerged application measured after 7 days
[27] = tested on: Podosphaera fuliginea; assay: Fungicidal activity against Podosphaera fuliginea assessed as cucumber powdery mildew control under greenhouse at 31.3 ppm foliar application 24 hr after inoculation on upper surface of leaf at 23 +/- 2 degC by curative manner
[28] = tested on: Pseudoperonospora cubensis; assay: Fungicidal activity against Pseudoperonospora cubensis assessed as cucumber downy mildew disease control at 7.8 ppm foliar application 24 hr after inoculation on upper surface of leaf by curative manner
[29] = tested on: Botrytis cinerea; assay: Fungicidal activity against Botryotinia fuckeliana assessed as cucumber gray mold disease control at 31.3 ppm foliar application 24 hr after inoculation at 22 +/- 2 degC measured after 3 days by curative manner
[30] = tested on: Podosphaera fuliginea; assay: Fungicidal activity against Podosphaera fuliginea assessed as cucumber powdery mildew control under greenhouse at 125 ppm foliar application 24 hr after inoculation on upper surface of leaf at 23 +/- 2 degC by curative manner
[31] = tested on: Pyricularia oryzae; assay: Fungicidal activity against Magnaporthe oryzae assessed as rice blast disease control at 10 ppm submerged application measured after 7 days
[32] = tested on: Pseudoperonospora cubensis; assay: Fungicidal activity against Pseudoperonospora cubensis assessed as cucumber downy mildew disease control at 31.3 ppm foliar application 24 hr after inoculation on upper surface of leaf by curative manner

SMILES: CNC(=O)/C(=N/OC)c1cc([Si](C)(C)C)ccc1Oc1ccccc1
- Activity [1]: <70%
- Activity [2]: <70%
- Activity [3]: <70%
- Activity [4]: <70%
- Activity [5]: <70%
- Activity [6]: <70%
- Activity [7]: <70%
- Activity [8]: <70%
- Activity [9]: <70%
- Activity [10]: <70%
- Activity [11]: <70%
- Activity [12]: <70%
- Activity [13]: <70%
- Activity [14]: <70%
- Activity [15]: <70%
- Activity [16]: <70%

SMILES: CNC(=O)/C(=N/OC)c1ccccc1Oc1ccc(Br)cc1
- Activity [1]: 70%
- Activity [17]: 50%
- Activity [2]: <70%
- Activity [18]: 50%
- Activity [19]: 50%
- Activity [4]: 70%
- Activity [20]: 50%
- Activity [21]: 50%
- Activity [5]: 70%
- Activity [6]: 70%
- Activity [7]: 70%
- Activity [22]: 50%
- Activity [23]: 50%
- Activity [9]: 70%
- Activity [10]: <70%
- Activity [24]: <50%
- Activity [25]: <50%
- Activity [26]: 50%
- Activity [11]: <70%
- Activity [27]: 50%
- Activity [12]: 70%
- Activity [28]: <50%
- Activity [29]: 50%
- Activity [13]: 70%
- Activity [15]: <70%
- Activity [30]: 50%
- Activity [31]: 50%
- Activity [32]: <50%

SMILES: CNC(=O)/C(=N/OC)c1ccccc1Oc1ccc(Cl)cc1
- Activity [1]: 70%
- Activity [17]: 50%
- Activity [2]: 70%
- Activity [18]: 50%
- Activity [19]: 50%
- Activity [4]: 70%
- Activity [20]: 50%
- Activity [21]: 50%
- Activity [5]: 70%
- Activity [6]: 70%
- Activity [7]: 70%
- Activity [22]: 50%
- Activity [23]: 50%
- Activity [9]: 70%
- Activity [10]: 70%
- Activity [24]: 50%
- Activity [25]: 50%
- Activity [26]: 50%
- Activity [11]: 70%
- Activity [27]: 50%
- Activity [12]: 70%
- Activity [28]: 50%
- Activity [29]: 50%
- Activity [13]: 70%
- Activity [15]: 70%
- Activity [30]: 50%
- Activity [31]: 50%
- Activity [32]: 50%

SMILES: CNC(=O)/C(=N/OC)c1ccccc1Oc1cccc(C)c1
- Activity [1]: 70%
- Activity [17]: 50%
- Activity [2]: 70%
- Activity [18]: 50%
- Activity [19]: 50%
- Activity [4]: 70%
- Activity [20]: 50%
- Activity [21]: 50%
- Activity [5]: 70%
- Activity [6]: 70%
- Activity [7]: 70%
- Activity [22]: 50%
- Activity [23]: 50%
- Activity [9]: 70%
- Activity [10]: 70%
- Activity [24]: 50%
- Activity [25]: 50%
- Activity [26]: 50%
- Activity [11]: 70%
- Activity [27]: 50%
- Activity [12]: 70%
- Activity [28]: 50%
- Activity [29]: 50%
- Activity [13]: 70%
- Activity [15]: 70%
- Activity [30]: 50%
- Activity [31]: 50%
- Activity [32]: 50%

SMILES: C=CCOc1cccc(Oc2ccccc2/C(=N\OC)C(=O)NC)c1
- Activity [1]: 70%
- Activity [17]: 50%
- Activity [2]: 70%
- Activity [18]: 50%
- Activity [19]: 50%
- Activity [4]: 70%
- Activity [20]: 50%
- Activity [21]: 50%
- Activity [5]: 70%
- Activity [6]: 70%
- Activity [7]: 70%
- Activity [22]: 50%
- Activity [23]: 50%
- Activity [9]: 70%
- Activity [10]: 70%
- Activity [24]: 50%
- Activity [25]: 50%
- Activity [26]: 50%
- Activity [11]: 70%
- Activity [27]: 50%
- Activity [12]: 70%
- Activity [28]: 50%
- Activity [29]: 50%
- Activity [13]: 70%
- Activity [15]: 70%
- Activity [30]: 50%
- Activity [31]: 50%
- Activity [32]: 50%

SMILES: CNC(=O)/C(=N/OC)c1ccccc1Oc1ccc(OC)cc1
- Activity [1]: 70%
- Activity [17]: 50%
- Activity [2]: 70%
- Activity [18]: 50%
- Activity [19]: 50%
- Activity [4]: 70%
- Activity [20]: 50%
- Activity [21]: 50%
- Activity [5]: 70%
- Activity [6]: 70%
- Activity [7]: 70%
- Activity [22]: 50%
- Activity [23]: 50%
- Activity [9]: 70%
- Activity [10]: 70%
- Activity [24]: 50%
- Activity [25]: 50%
- Activity [26]: 50%
- Activity [11]: 70%
- Activity [27]: 50%
- Activity [12]: 70%
- Activity [28]: 50%
- Activity [29]: 50%
- Activity [13]: 70%
- Activity [15]: 70%
- Activity [30]: 50%
- Activity [31]: 50%
- Activity [32]: 50%

SMILES: CNC(=O)/C(=N/OC)c1ccccc1Oc1ccc(C(C)(C)C)cc1
- Activity [1]: 70%
- Activity [17]: 50%
- Activity [2]: <70%
- Activity [18]: 50%
- Activity [19]: 50%
- Activity [4]: 70%
- Activity [20]: 50%
- Activity [21]: 50%
- Activity [5]: 70%
- Activity [6]: 70%
- Activity [7]: 70%
- Activity [22]: 50%
- Activity [23]: 50%
- Activity [9]: 70%
- Activity [10]: <70%
- Activity [24]: <50%
- Activity [25]: <50%
- Activity [26]: 50%
- Activity [11]: <70%
- Activity [27]: 50%
- Activity [12]: 70%
- Activity [28]: <50%
- Activity [29]: 50%
- Activity [13]: 70%
- Activity [15]: <70%
- Activity [30]: 50%
- Activity [31]: 50%
- Activity [32]: <50%

SMILES: C#CCOc1cccc(Oc2ccccc2/C(=N\OC)C(=O)NC)c1
- Activity [1]: 70%
- Activity [17]: <50%
- Activity [2]: 70%
- Activity [18]: 50%
- Activity [19]: 50%
- Activity [4]: 70%
- Activity [20]: 50%
- Activity [21]: 50%
- Activity [5]: 70%
- Activity [6]: 70%
- Activity [7]: 70%
- Activity [22]: <50%
- Activity [23]: 50%
- Activity [9]: 70%
- Activity [10]: 70%
- Activity [24]: <50%
- Activity [25]: <50%
- Activity [26]: 50%
- Activity [11]: 70%
- Activity [27]: <50%
- Activity [12]: 70%
- Activity [28]: <50%
- Activity [29]: 50%
- Activity [13]: 70%
- Activity [15]: 70%
- Activity [30]: <50%
- Activity [31]: 50%
- Activity [32]: <50%
